From patent US10722520B2, “Heterocyclic compounds and their use in preventing or treating bacterial infections” (MUTABILIS, priority 2016, dated 2020)

Columns and labels:
KPC-2 = KPC-2 (Klebsiella pneumoniae, UniProt Q9F663); conditions: read-out: IC50 β-lactamase KPC-2; class (A); nitrocefin 200 μM, 30-min pre-incubation, enzyme 1 nM
CMY-37 = CMY-37 (Citrobacter freundii, UniProt P05193); conditions: read-out: IC50 β-lactamase CMY-37; class (C); nitrocefin 200 μM, 30-min pre-incubation, enzyme 0.2 nM
AmpC (P99) = AmpC (P99) (Enterobacter cloacae, UniProt P05364); conditions: read-out: IC50 β-lactamase AmpC (P99); class (C); nitrocefin 200 μM, 30-min pre-incubation, enzyme 0.2 nM
AmpC (PAE) = AmpC (PAE) (Pseudomonas aeruginosa, UniProt P24735); conditions: read-out: IC50 β-lactamase AmpC (PAE); class (C); nitrocefin 200 μM, 30-min pre-incubation, enzyme 0.4 nM
K. pneumoniae 6299 [1] = assay: MIC of ceftazidime (CAZ) at fixed concentration of compound (synergy), broth microdilution; assay type: cell-based; conditions: strain 6299; MIC of CAZ, compound fixed at 4 μg/mL
Protocol: (§1) Log phase bacterial suspensions were adjusted to a final density of 5×10^5 cfu/mL in cation-adjusted Mueller-Hinton broth (Becton-Dickinson) and added to each well (98 μL). Microplates were incubated for 16-20 h at 35° C. in ambient air. The MIC of the compounds was defined as the lowest concentration of said compounds that prevented bacterial growth as read by visual inspection.

P. aeruginosa CIP107051 [2] = assay: as above; assay type: cell-based; conditions: strain CIP107051; MIC of CAZ, compound fixed at 4 μg/mL
Protocol: as §1

E. coli 190317 [3] = assay: as above; assay type: cell-based; conditions: strain 190317; MIC of CAZ, compound fixed at 4 μg/mL
Protocol: as §1

K. pneumoniae BAA-1898 [4] = assay: as above; assay type: cell-based; conditions: strain BAA-1898; MIC of CAZ, compound fixed at 4 μg/mL
Protocol: as §1

E. cloacae P99 [5] = assay: as above; assay type: cell-based; conditions: strain P99; MIC of CAZ, compound fixed at 4 μg/mL
Protocol: as §1

OXA-1 = OXA-1 (Escherichia coli, UniProt P13661); conditions: read-out: IC50 β-lactamase OXA-1; class (D); nitrocefin 200 μM, 30-min pre-incubation, enzyme 0.2 nM
SHV-1 = SHV-1 (Klebsiella pneumoniae, UniProt P0AD64); conditions: read-out: IC50 β-lactamase SHV-1; class (A); nitrocefin 200 μM, 30-min pre-incubation, enzyme 0.075 nM
CTX-M-15 = CTX-M-15 (Escherichia coli, UniProt Q9EXV5); conditions: read-out: IC50 β-lactamase CTX-M-15; class (A); nitrocefin 200 μM, 30-min pre-incubation, enzyme 0.4 nM
OXA-11 = OXA-11 (Pseudomonas aeruginosa, UniProt Q06778); conditions: read-out: IC50 β-lactamase OXA-11; class (D); nitrocefin 200 μM, 30-min pre-incubation, enzyme 1.2 nM
OXA-15 = OXA-15 (Pseudomonas aeruginosa, UniProt Q51574); conditions: read-out: IC50 β-lactamase OXA-15; class (D); nitrocefin 200 μM, 30-min pre-incubation, enzyme 0.4 nM
K. pneumoniae 6299 [6] = assay: MIC of compound alone, broth microdilution; assay type: cell-based; conditions: strain 6299; compound alone
Method in brief: (§2)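 Exponential-phase inoculum, 5×10^5 cfu/mL final, in cation-supplemented MHB; 35° C in air for 16-20 h. MIC: lowest concentration giving no visible growth.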

P. aeruginosa CIP107051 [7] = assay: MIC of compound alone, broth microdilution; assay type: cell-based; conditions: strain CIP107051; compound alone
Method in brief: as §2

E. coli 190317 [8] = assay: MIC of compound alone, broth microdilution; assay type: cell-based; conditions: strain 190317; compound alone
Method in brief: as §2

K. pneumoniae BAA-1898 [9] = assay: MIC of compound alone, broth microdilution; assay type: cell-based; conditions: strain BAA-1898; compound alone
Method in brief: as §2

E. cloacae P99 [10] = assay: MIC of compound alone, broth microdilution; assay type: cell-based; conditions: strain P99; compound alone
Method in brief: as §2

OXA-48 = OXA-48 (Klebsiella pneumoniae, UniProt Q6XEC0); conditions: read-out: IC50 β-lactamase OXA-48; class (D); nitrocefin 200 μM, 30-min pre-incubation, enzyme 0.3 nM
TEM-1 = TEM-1 (Escherichia coli, UniProt P62593); conditions: read-out: IC50 β-lactamase TEM-1; class (A); nitrocefin 200 μM, 30-min pre-incubation, enzyme 0.1 nM

SMILES	IC50 (KPC-2) [nM]	IC50 (CMY-37) [nM]	IC50 (AmpC (P99)) [nM]	IC50 (AmpC (PAE)) [nM]	MIC combination of CAZ and compounds of the invention at 4 μg/mL (K. pneumoniae 6299 [1]) [µg/mL]	MIC combination of CAZ and compounds of the invention at 4 μg/mL (P. aeruginosa CIP107051 [2]) [µg/mL]	MIC combination of CAZ and compounds of the invention at 4 μg/mL (E. coli 190317 [3]) [µg/mL]	MIC combination of CAZ and compounds of the invention at 4 μg/mL (K. pneumoniae BAA-1898 [4]) [µg/mL]	MIC combination of CAZ and compounds of the invention at 4 μg/mL (E. cloacae P99 [5]) [µg/mL]	IC50 (OXA-1) [nM]	IC50 (SHV-1) [nM]	IC50 (CTX-M-15) [nM]	IC50 (OXA-11) [nM]	IC50 (OXA-15) [nM]	MIC compounds of the invention alone (K. pneumoniae 6299 [6]) [µg/mL]	MIC compounds of the invention alone (P. aeruginosa CIP107051 [7]) [µg/mL]	MIC compounds of the invention alone (E. coli 190317 [8]) [µg/mL]	MIC compounds of the invention alone (K. pneumoniae BAA-1898 [9]) [µg/mL]	MIC compounds of the invention alone (E. cloacae P99 [10]) [µg/mL]	IC50 (OXA-48) [nM]	other results
NC(=O)c1nn(C2=CC3CN(C2)C(=O)N3OS(=O)(=O)[O-])cc1F.[Na+] (stereo not drawn) [Example 26, sodium (7-oxo-3-(3-carboxamide-4-fluoro-pyrazol-1-yl)-1,6-diazabicyclo[3.2.1]oct-3-en-6-yl) sulfate]	3.2	36	14	130	≤0.25	4	<0.25	0.5	1	33	1.2	0.72	9.8	13	16	>32	4	16	16	7.8	IC50 (TEM-1): 0.23 nM
NC(=O)c1cc(F)n(C2=CC3CN(C2)C(=O)N3OS(=O)(=O)[O-])n1.[Na+] (stereo not drawn) [Example 30, sodium (7-oxo-3-(3-carboxamide-5-fluoro-pyrazol-1-yl)-1,6-diazabicyclo[3.2.1]oct-3-en-6-yl) sulfate]	5.3	99	28	370	1	16	0.25	2	8	350	2.7	1	29	170	>32	>32	32	>32	>32	36	IC50 (TEM-1): 0.33 nM
CC(=O)Nc1ccn(C2=CC3CN(C2)C(=O)N3OS(=O)(=O)O)n1.CCN(CC)CC (stereo not drawn) [Example 33, triethylammonium {[3-(N-acetamido)pyrazol-1-yl]-7-oxo-1,6-diazabicyclo[3.2.1]oct-3-en-6-yl}sulfate]	11	3.2	7.1	32	0.25	8	≤0.25	16	1	68	1.7	0.72	8.4	44	32	>32	8	32	16	3.1	IC50 (TEM-1): 0.67 nM
O=C(O)C(F)(F)F.O=C1N2CC(n3ccc(CNc4nccs4)n3)=CC(C2)N1OS(=O)(=O)[O-].[Na+] (stereo not drawn) [Example 35, sodium and 2,2,2-trifluoroacetate [7-oxo-3-[3-(methylene-2-ammoniumthiazole)pyrazol-1-yl]-1,6-diazabicyclo[3.2.1]oct-3-en-6-yl]sulfate]	13	8.1	12	52	32	16	0.5	32	32	130	3.2	0.5	54	79	>32	>32	16	>32	>32	6	IC50 (TEM-1): 0.73 nM
C/C(=N/O)c1cnn(C2=CC3CN(C2)C(=O)N3OS(=O)(=O)[O-])c1.[Na+] (stereo not drawn) [Example 39, sodium [3-[4-[(Z,E)-N-hydroxy-C-methyl-carbonimidoyl]pyrazol-1-yl]-7-oxo-1,6-diazabicyclo[3.2.1]oct-3-en-6-yl]sulfate]	4.1	8.1	9.5	82	16	8	1	128	16	150	1.3	0.56	73	8.5	>32	>32	>32	>32	>32	1.8	IC50 (TEM-1): 0.21 nM
NCCNC(=O)Cc1ccn(C2=CC3CN(C2)C(=O)N3OS(=O)(=O)[O-])n1.O=C(O)C(F)(F)F.[Na+] (stereo not drawn) [Example 48, sodium and 2,2,2-trifluoroacetate [3-[3-[2-(2-ammoniumethylamino)-2-oxo-ethyl]pyrazol-1-yl]-7-oxo-1,6-diazabicyclo[3.2.1]oct-3-en-6-yl]sulfate]	130	80	110	310	0.25	4	<0.25	4	0.5	940	5.3	2.4	200	510	>32	>32	4	>32	32	36	IC50 (TEM-1): 1.4 nM
